The source of these data is patent US20260078108A1, “SOLID FORMS OF A ROCK INHIBITOR” (REDX PHARMA PLC, priority 2022, published 2026).

For one test, the target named is T1, M2 (h) (Homo sapiens, UniProt P08172).
T1 construct: expressed in transfected cells; host or cells: CHO cells
T1 sequence (P08172 1-466): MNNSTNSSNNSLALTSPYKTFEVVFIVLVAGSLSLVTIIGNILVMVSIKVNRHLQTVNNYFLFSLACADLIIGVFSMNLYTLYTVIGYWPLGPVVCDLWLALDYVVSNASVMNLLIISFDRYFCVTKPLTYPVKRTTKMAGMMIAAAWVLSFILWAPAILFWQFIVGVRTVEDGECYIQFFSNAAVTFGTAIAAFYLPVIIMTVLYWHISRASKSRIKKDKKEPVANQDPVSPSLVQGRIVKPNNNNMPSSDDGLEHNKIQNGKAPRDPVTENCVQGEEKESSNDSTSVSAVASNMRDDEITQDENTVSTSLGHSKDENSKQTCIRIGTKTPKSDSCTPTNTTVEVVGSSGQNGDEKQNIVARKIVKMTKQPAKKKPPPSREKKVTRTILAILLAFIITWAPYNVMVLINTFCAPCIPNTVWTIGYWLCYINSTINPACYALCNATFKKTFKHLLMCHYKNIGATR
Briefly: CEREP panel M2 (h) agonist effect, cAMP HTRF. It counts as cell-based. The following applies: HCl salt tested, CHO cells. The text has this: (§1) The use of in vitro pharmacological screening against a diverse range of targets (receptors, ion channels, enzymes and transporters) is used to identify undesirable off-target activity that may cause adverse drug reactions in humans. Screening panels (e.g. SafetyScreen44™ Panel, Eurofins) comprise a selection of off-targets linked with known issues in humans that could hinder or halt the development of drug candidates or market withdrawal if discovered after a drug is approved. The HCl salts of the S enantiomer and the R enantiomer of compound A were tested against a panel of such targets.
(§2) The tests were carried out according to the methods described in the following tables and indicated literature references.
In general terms: TR-FRET usually uses a lanthanide donor and a delayed reading to cut background.

The target of another test is T2, LATS2 (Homo sapiens, UniProt Q9NRM7).
T2 sequence (Q9NRM7 1-1088): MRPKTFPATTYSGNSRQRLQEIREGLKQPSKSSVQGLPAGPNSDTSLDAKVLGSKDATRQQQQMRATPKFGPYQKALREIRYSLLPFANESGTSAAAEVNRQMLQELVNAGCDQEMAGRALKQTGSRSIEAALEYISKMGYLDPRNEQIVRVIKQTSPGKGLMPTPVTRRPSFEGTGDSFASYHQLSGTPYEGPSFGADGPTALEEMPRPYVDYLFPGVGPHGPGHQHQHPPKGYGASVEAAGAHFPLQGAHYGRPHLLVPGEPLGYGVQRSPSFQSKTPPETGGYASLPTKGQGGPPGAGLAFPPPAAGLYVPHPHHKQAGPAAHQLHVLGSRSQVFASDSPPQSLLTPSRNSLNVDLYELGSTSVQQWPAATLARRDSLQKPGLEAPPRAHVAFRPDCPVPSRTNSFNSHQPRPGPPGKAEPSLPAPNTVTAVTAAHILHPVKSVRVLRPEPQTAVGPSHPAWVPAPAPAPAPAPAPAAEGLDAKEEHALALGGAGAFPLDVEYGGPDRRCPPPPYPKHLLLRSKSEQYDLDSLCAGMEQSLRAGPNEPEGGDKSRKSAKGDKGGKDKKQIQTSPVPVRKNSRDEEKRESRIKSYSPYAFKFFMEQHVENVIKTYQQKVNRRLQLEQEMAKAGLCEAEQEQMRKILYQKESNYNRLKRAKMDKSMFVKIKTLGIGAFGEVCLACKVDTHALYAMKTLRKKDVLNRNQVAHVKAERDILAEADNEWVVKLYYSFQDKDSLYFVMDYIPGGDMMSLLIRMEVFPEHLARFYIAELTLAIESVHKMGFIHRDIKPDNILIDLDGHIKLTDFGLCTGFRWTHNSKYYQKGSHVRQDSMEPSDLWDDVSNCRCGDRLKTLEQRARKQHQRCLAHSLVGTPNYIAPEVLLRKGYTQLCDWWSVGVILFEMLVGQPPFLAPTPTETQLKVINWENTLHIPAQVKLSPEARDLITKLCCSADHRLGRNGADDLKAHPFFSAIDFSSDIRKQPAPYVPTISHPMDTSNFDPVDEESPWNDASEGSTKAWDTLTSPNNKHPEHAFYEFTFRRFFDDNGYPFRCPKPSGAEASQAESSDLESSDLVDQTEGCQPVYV
Briefly: Kinase panel 33P-ATP filter assay, LATS2. It counts as biochemical. The following applies: HCl salt tested; ATP Conc. 30 μM (Km); read-out: Compound IC50 (nM) LATS2. Here is the method:
The HCl salts of S enantiomer and the R enantiomer of compound A were tested against a panel of kinases.
Compounds were received as powder and resuspended to 10 mM DMSO stock. Compounds were tested in 10-dose IC50 mode with a 3-fold serial dilution starting at 10 μM. Control compound, staurosporine, was tested in 10-dose IC50 mode with 4-fold serial dilution starting at 20 μM.
Reaction Conditions: Buffer Conditions: 20 mM HEPES ((4-(2-hydroxyethyl)-1-piperazineethanesulfonic acid; pH 7.5), 10 mM MgCl2, 1 mM EGTA (Ethyleneglycol-bis(p-aminoethyl)-N,N,N′,N′-tetraacetic Acid), 0.01% Brij35, 0.02 mg/ml BSA (Bovine serum albumin), 0.1 mM Na3VO4, 2 mM DTT (Dithiothreitol), 1% DMSO. Reaction Procedure: 1. Prepare indicated substrate in freshly prepared reaction buffer. 2. Deliver required cofactors to the substrate solution above. 3. Deliver indicated kinase into the substrate solution and mix gently. 4. Deliver compounds in DMSO into the kinase reaction mixture utilizing acoustic technology (Echo550). 5. Deliver ^33P-ATP (specific activity 0.01 μCi/μl final) into the reaction mixture to initiate the reaction. 6. Incubate kinase reaction for 120 minutes at room temperature. 7. […] Data Analysis: Kinase activity data were expressed as the percent remaining kinase activity in test samples compared to vehicle (dimethyl sulfoxide) reactions. […]

In another test the target is T3, μ (MOP) (h) (Homo sapiens, UniProt P35372).
T3 construct: expressed in transfected cells; host or cells: CHO cells
T3 sequence (P35372 whole entry): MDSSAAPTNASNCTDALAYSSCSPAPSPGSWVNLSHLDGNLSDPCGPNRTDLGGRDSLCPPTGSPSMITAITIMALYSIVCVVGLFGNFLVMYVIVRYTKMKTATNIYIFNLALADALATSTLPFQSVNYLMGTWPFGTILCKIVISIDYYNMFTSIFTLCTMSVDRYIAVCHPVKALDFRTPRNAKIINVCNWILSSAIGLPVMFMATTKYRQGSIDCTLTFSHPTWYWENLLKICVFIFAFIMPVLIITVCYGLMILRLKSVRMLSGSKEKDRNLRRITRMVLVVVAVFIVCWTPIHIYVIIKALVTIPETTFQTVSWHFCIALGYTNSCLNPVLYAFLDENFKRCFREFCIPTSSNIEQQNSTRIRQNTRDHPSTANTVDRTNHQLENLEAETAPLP
Briefly: CEREP panel mu (MOP) (h) agonist effect, cAMP HTRF. The format is cell-based. The following applies: HCl salt tested, CHO cells.
Source text: as §1, §2

pEC50: −log10 of the molar value.

For orientation: pEC50 means the EC50 on a negative log10 scale, so that one unit is a factor of ten. As a reminder, the IC50 is the concentration that gives 50% inhibition. In the case of `NCc1ccc(C(=O)Nc2ccncc2F)cc1-c1cccc(C(=O)Nc2ccc(SC[C@@H]3CCOC3=O)cc2)c1` [R-enantiomer], the pEC50 is less than 5.00 on M2 (h) and 5.52 at μ (MOP) (h). Further, at LATS2, the IC50 was 42.7 nM.

Turning to `NCc1ccc(C(=O)Nc2ccncc2F)cc1-c1cccc(C(=O)Nc2ccc(SC[C@H]3CCOC3=O)cc2)c1` [S-enantiomer], the negative logarithm of the EC50 (pEC50) at M2 (h) is 4.03; on μ (MOP) (h), 4.08. At LATS2, the half-inhibitory concentration (IC50) stood at 33.3 nM.
